Source: BindingDB's records for doi:10.7270/Q22J699S (Nmmlsc, 2010)

target: Guanine nucleotide-binding protein G(o) subunit alpha (Homo sapiens, UniProt P09471); assay: modulators of RGS8 binding to Galphao – biochemical, multiplexed bead assay, additional SAR round, SAR follow-up (AID 2827)
Sequence (P09471 whole entry): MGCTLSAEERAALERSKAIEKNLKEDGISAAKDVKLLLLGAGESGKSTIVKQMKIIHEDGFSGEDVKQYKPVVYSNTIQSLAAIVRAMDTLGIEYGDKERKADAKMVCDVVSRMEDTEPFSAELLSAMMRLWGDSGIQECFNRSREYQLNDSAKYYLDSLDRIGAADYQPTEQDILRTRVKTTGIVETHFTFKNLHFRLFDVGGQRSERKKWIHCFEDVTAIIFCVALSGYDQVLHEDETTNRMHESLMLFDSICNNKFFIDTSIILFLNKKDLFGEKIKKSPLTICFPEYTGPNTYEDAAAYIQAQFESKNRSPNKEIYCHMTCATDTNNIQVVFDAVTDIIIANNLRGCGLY

| EC50 | Compound |
| --- | --- |
| > 30 µM | O=C(c1sc2cc([N+](=O)[O-])ccc2c1Cl)N1CCNCC1 |
| > 30 µM | Cc1ccc2c(Cl)c(C(=O)NCCCN3CCOCC3)sc2c1 [KUC103874N] |
| > 30 µM | NC(=O)c1sc2cc([N+](=O)[O-])ccc2c1Cl [KSC-1-100] |
| > 30 µM | O=C(NCCCN1CCOCC1)c1sc2cc([N+](=O)[O-])ccc2c1Cl [3-chloranyl-N-(3-morpholin-4-ylpropyl)-6-nitro-1-benzothiophene-2-carboxamide] |
| > 30 µM | O=C(NCCCn1ccnc1)c1sc2cc([N+](=O)[O-])ccc2c1Cl [3-chloro-N-[3-(1-imidazolyl)propyl]-6-nitro-1-benzothiophene-2-carboxamide] |
